{"source": "patent US20210161174A1", "about": "“FEED ADDITIVE FOR FARMED ANIMALS” (ADISSEO FRANCE S.A.S., priority 2018, published 2021)", "test_system": "wooden breast myopathies", "test": "Example 2: wooden breast assessment by expert panel at 42 d", "type": "in vivo, Broiler Chicken (Cobb 500)", "details": "for wooden breast means per treatment (WB): score scale WB0-WB4", "description": "Study Animals: • Animal: Broiler Chicken • Breed/Strain: Cobb 500 • Description: Day-of-hatch male chicks, sexed at hatchery • Sex: Male\nProcessing: On day […] (12) birds are selected from each pen for processing (at 12 reps/trt: 576 birds in total; 144 birds/trt)\nWooden breast assessment was determined by an expert panel according to 5 levels: WB0, WB1, WB2, WB3, WB4 from no WB to severe WB.\nDietary Treatments • Control (NC, negative control without PQQ) • 0.2 ppm PQQ • 0.5 ppm PQQ • 1 ppm PQQ\nWooden Breast Scores were: WB 0—normal breast; WB 1—mild hardening in the upper; WB 2—moderate hardening in the upper and/or lower part of the fillet; WB 3—severe hardening; WB 4—severe hardening with hemorrhagic lesions, increased volume, and presence of yellow fluid.\nHigher is the score per WB 3 and 4 categories, greater is the default. Conversely, for categories WB0 to WB2, higher is the score, better is the quality.\nWooden breast scores were: WB0—normal breast; WB1—mild hardening in the upper; WB 2—moderate hardening in the upper and/or lower part of the fillet; WB 3—severe hardening; WB 4—severe hardening with hemorrhagic lesions, increased volume, and presence of yellow fluid.", "note": "Marks after values point to notes of the source that are not given here.", "data": [{"smiles": "O=C(O)c1cc(C(=O)O)c2c(n1)C(=O)C(=O)c1cc(C(=O)O)[nH]c1-2", "note": "[PQQ, pyrroloquinoline quinone]", "values": [{"measurement": "wooden breast myopathies occurrence, WB0", "setting": "0.2 ppm PQQ (T2)", "value": 0.83, "unit": "%"}, {"measurement": "wooden breast myopathies occurrence, WB1", "setting": "0.2 ppm PQQ (T2)", "value": 2.78, "unit": "%"}, {"measurement": "wooden breast myopathies occurrence, WB2", "setting": "0.2 ppm PQQ (T2)", "value": "20.00^a %"}, {"measurement": "wooden breast myopathies occurrence, WB3", "setting": "0.2 ppm PQQ (T2)", "value": "49.16^a %"}, {"measurement": "wooden breast myopathies occurrence, WB4", "setting": "0.2 ppm PQQ (T2)", "value": 27.22, "unit": "%"}, {"measurement": "wooden breast myopathies scores, WB0", "setting": "0.2 ppm PQQ (T2)", "value": 0.08}, {"measurement": "wooden breast myopathies scores, WB1", "setting": "0.2 ppm PQQ (T2)", "value": 0.17}, {"measurement": "wooden breast myopathies scores, WB2", "setting": "0.2 ppm PQQ (T2)", "value": "1.17^b"}, {"measurement": "wooden breast myopathies scores, WB3", "setting": "0.2 ppm PQQ (T2)", "value": 2.92}, {"measurement": "wooden breast myopathies scores, WB4", "setting": "0.2 ppm PQQ (T2)", "value": 1.67}, {"measurement": "wooden breast means per treatment (WB)", "setting": "0.2 ppm PQQ (T2)", "value": "2.92^a"}, {"measurement": "wooden breast myopathies occurrence, WB0", "setting": "0.5 ppm PQQ (T3)", "value": 0.00, "unit": "%"}, {"measurement": "wooden breast myopathies occurrence, WB1", "setting": "0.5 ppm PQQ (T3)", "value": 15.29, "unit": "%"}, {"measurement": "wooden breast myopathies occurrence, WB2", "setting": "0.5 ppm PQQ (T3)", "value": "41.67^ab %"}, {"measurement": "wooden breast myopathies occurrence, WB3", "setting": "0.5 ppm PQQ (T3)", "value": "30.56^ab %"}, {"measurement": "wooden breast myopathies occurrence, WB4", "setting": "0.5 ppm PQQ (T3)", "value": 12.50, "unit": "%"}, {"measurement": "wooden breast myopathies scores, WB0", "setting": "0.5 ppm PQQ (T3)", "value": 0.00}, {"measurement": "wooden breast myopathies scores, WB1", "setting": "0.5 ppm PQQ (T3)", "value": 0.92}, {"measurement": "wooden breast myopathies scores, WB2", "setting": "0.5 ppm PQQ (T3)", "value": "2.50^ab"}, {"measurement": "wooden breast myopathies scores, WB3", "setting": "0.5 ppm PQQ (T3)", "value": 1.83}, {"measurement": "wooden breast myopathies scores, WB4", "setting": "0.5 ppm PQQ (T3)", "value": 0.75}, {"measurement": "wooden breast means per treatment (WB)", "setting": "0.5 ppm PQQ (T3)", "value": "2.36^b"}, {"measurement": "change in proportion of WB2 breast fillets with supplementation", "setting": "1 ppm PQQ", "value": "+50%"}, {"measurement": "change in proportion of WB4 breast fillets with supplementation", "setting": "1 ppm PQQ", "value": "−60", "unit": "%"}, {"measurement": "wooden breast myopathies occurrence, WB0", "setting": "1.0 ppm PQQ (T4)", "value": 0.00, "unit": "%"}, {"measurement": "wooden breast myopathies occurrence, WB1", "setting": "1.0 ppm PQQ (T4)", "value": 18.05, "unit": "%"}, {"measurement": "wooden breast myopathies occurrence, WB2", "setting": "1.0 ppm PQQ (T4)", "value": "46.94^a %"}, {"measurement": "wooden breast myopathies occurrence, WB3", "setting": "1.0 ppm PQQ (T4)", "value": "25.00^b %"}, {"measurement": "wooden breast myopathies occurrence, WB4", "setting": "1.0 ppm PQQ (T4)", "value": 10.00, "unit": "%"}, {"measurement": "wooden breast myopathies scores, WB0", "setting": "1.0 ppm PQQ (T4)", "value": 0.00}, {"measurement": "wooden breast myopathies scores, WB1", "setting": "1.0 ppm PQQ (T4)", "value": 1.08}, {"measurement": "wooden breast myopathies scores, WB2", "setting": "1.0 ppm PQQ (T4)", "value": "2.75^a"}, {"measurement": "wooden breast myopathies scores, WB3", "setting": "1.0 ppm PQQ (T4)", "value": 1.50}, {"measurement": "wooden breast myopathies scores, WB4", "setting": "1.0 ppm PQQ (T4)", "value": 0.58}, {"measurement": "wooden breast means per treatment (WB)", "setting": "1.0 ppm PQQ (T4)", "value": "2.26^b"}, {"measurement": "proportions of bad quality fillets (WB3 and WB4)", "setting": "supplementation with PQQ", "value": "lower proportions"}, {"measurement": "proportions of good quality breast fillets (WB0 to WB2)", "setting": "supplementation with PQQ", "value": "higher proportions"}]}]}
